Data from patent US20140011799A1 (Bristol-Myers Squibb Company, priority 2012, published 2014).

Target: T1, Endothelial lipase (EL) (Homo sapiens, UniProt Q9Y5X9)
T1 construct: HT-1080 cells that were transformed using RAGE technology (Athersys) to overexpress endogenous EL; endogenous in cells; conditioned medium used
T1 sequence (Q9Y5X9 21-500): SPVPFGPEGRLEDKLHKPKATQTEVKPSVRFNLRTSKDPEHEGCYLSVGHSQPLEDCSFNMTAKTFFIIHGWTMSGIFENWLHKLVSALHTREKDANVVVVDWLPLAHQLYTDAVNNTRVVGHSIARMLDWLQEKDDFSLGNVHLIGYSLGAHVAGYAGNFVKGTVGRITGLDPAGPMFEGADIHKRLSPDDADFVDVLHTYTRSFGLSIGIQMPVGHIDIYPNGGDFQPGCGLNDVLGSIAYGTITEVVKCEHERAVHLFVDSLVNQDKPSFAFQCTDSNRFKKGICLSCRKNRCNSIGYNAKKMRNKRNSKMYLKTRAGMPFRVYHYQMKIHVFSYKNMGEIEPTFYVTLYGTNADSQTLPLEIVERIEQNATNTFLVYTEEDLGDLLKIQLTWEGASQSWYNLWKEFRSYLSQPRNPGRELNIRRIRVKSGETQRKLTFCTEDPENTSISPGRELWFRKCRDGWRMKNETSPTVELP
Assay: Endothelial lipase (EL) enzymatic assay, fluorescent substrate A10070 in DMPG vesicles
Format: biochemical
Details: EL from conditioned media of HT-1080 cells; compound preincubated 30 min at 37° C; read-out: EL IC50
Outline: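 Substrate A10070 sits in sonicated DMPG vesicles at 0.11 mole fraction. Lipase and compound preincubated 30 min, 37° C, in HEPES pH 8.0 buffer with CaCl2.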

Row | Compound | IC50 [nM]
1 | NS(=O)(=O)NCc1nnc(C(c2nc3ccc(-c4ccc(F)nc4)cc3s2)S(=O)(=O)Cc2ccc(C(F)(F)F)nc2)o1 (centres unmarked) [Example 76, N-({5-[6-(6-fluoro-3-pyridinyl)-1,3-benzothiazol-2-yl({[6-(trifluoromethyl)pyridin-3-yl]methyl}sulfonyl)methyl]-1,3,4-oxadiazol-2-yl}methyl) sulfuric diamide] | 11
2 | NS(=O)(=O)NCc1nnc(C(c2nc3ccc(-c4ccccc4)cc3s2)S(=O)(=O)C2CCCC2)o1 (centres unmarked) [Example 67, N-({5-[(cyclopentylsulfonyl) (6-phenyl-1,3-benzothiazol-2-yl)methyl]-1,3,4-oxadiazol-2-yl}methyl)sulfuric diamide] | < 10
3 | CS(=O)(=O)C(c1nnc(CC2SC(=O)NC2=O)o1)c1nc2c(F)cc(-c3ccccc3)cc2s1 (centres unmarked) [Example 94, 5-((5-((4-fluoro-6-phenyl-benzo[d]thiazol-2-yl) (methylsulfonyl)methyl)-1,3,4-oxadiazol-2-yl)methyl)thiazolidine-2,4-dione] | < 10
4 | COc1nc(-c2nnc(C(c3nc4ccc(-c5ccc(F)cc5)cc4s3)S(C)(=O)=O)o2)c(O)c(=O)[nH]1 (centres unmarked) [Example 43, 6-(5-((6-(4-Fluorophenyl)benzo[d]thiazol-2-yl)(methylsulfonyl)methyl)-1,3,4-oxadiazol-2-yl)-5-hydroxy-2-methoxypyrimidin-4(3H)-one] | 14
5 | CC1(Cc2nnc(C(c3nc4ccc(-c5ccnc(F)c5)cc4s3)S(C)(=O)=O)o2)NC(=O)NC1=O (single isomer, unassigned; isomer b) [Example 12, 5-((5-((6-(2-fluoropyridin-4-yl)benzo[d]thiazol-2-yl)(methylsulfonyl)methyl)-1,3,4-oxadiazol-2-yl)methyl)-5-methylimidazolidine-2,4-dione (Isomer B)] | 54
6 | CC(C)(C)CN1CC(c2nnc(C(c3nc4ccc(-c5ccccc5)cc4s3)S(=O)(=O)Cc3ccccc3)o2)C1 (centres unmarked) [Example 82, 2-((Benzylsulfonyl)(6-phenylbenzo[d]thiazol-2-yl)methyl)-5-(1-neopentylazetidin-3-yl)-1,3,4-oxadiazole] | 26
7 | COc1ccc(OCCCS(=O)(=O)C(c2nnc(CNS(N)(=O)=O)o2)c2nc3ccc(-c4ccccc4)cc3s2)cc1 (centres unmarked) [Example 55, N-((5-(((3-(4-methoxyphenoxy)propyl)sulfonyl) (6-phenyl-1,3-benzothiazol-2-yl)methyl)-1,3,4-oxadiazol-2-yl)methyl)sulfamide] | < 10
8 | CC1(Cc2nnc(C(c3nc4ccc(-c5ccc(F)nc5)cc4s3)S(C)(=O)=O)o2)NC(=O)NC1=O (single isomer, unassigned; isomer b) [Example 22, 5-((5-((6-(6-fluoropyridin-3-yl)benzo[d]thiazol-2-yl)(methylsulfonyl)methyl)-1,3,4-oxadiazol-2-yl)methyl)-5-methylimidazolidine-2,4-dione (Isomer B)] | 27
9 | CCNC(=O)NCc1nnc(C(c2nc3ccc(-c4ccccc4)cc3s2)S(C)(=O)=O)o1 (centres unmarked) [Example 87, 1-Ethyl-3((5-((methylsulfonyl)(6-phenylbenzo[d]thiazol-2-yl)methyl)-1,3,4-oxadiazol-2-yl)methyl)urea] | 46
10 | CN(Cc1nnc(C(c2nc3ccc(-c4ccccc4)cc3s2)S(=O)(=O)Cc2ccccc2)o1)S(N)(=O)=O (centres unmarked) [Example 81] | 32
11 | CS(=O)(=O)C(c1nnc(CNS(N)(=O)=O)o1)c1nc2ccc(-c3ccccc3)cc2s1 (centres unmarked) [Example 46, N-({5-[(M ethylsulfonyl)(6-phenyl-1,3-benzothiazol-2-yl)methyl]-1,3,4-oxadiazol-2-yl}methyl)sulfuric diamide] | < 10
12 | CS(=O)(=O)C(c1nnc(CC2SC(=O)NC2=O)o1)c1nc2ccc(-c3ccccc3)cc2s1 (centres unmarked) [Example 31, 5-((5-((methylsulfonyl) (6-phenyl-1,3-benzothiazol-2-yl)methyl)-1,3,4-oxadiazol-2-yl)methyl)-1,3-thiazolidine-2,4-dione] | < 10
13 | CC1(Cc2nnc(C(c3nc4ccc(-c5ccc(C(=O)N6CCOCC6)cc5)cc4s3)S(C)(=O)=O)o2)NC(=O)NC1=O (single isomer, unassigned; isomer a) [Example 14, 5-methyl-5-((5-((methylsulfonyl)(6-(4-(morpholine-4-carbonyl)phenyl)benzo[d]thiazol-2-yl)methyl)-1,3,4-oxadiazol-2-yl)methyl)imidazolidine-2,4-dione (Isomer A)] | 12
14 | Cc1cc2nc(C(c3nnc(CC4SC(=O)NC4=O)o3)S(=O)(=O)Cc3ccccc3)sc2cc1-c1ccccc1 (centres unmarked) [Example 97, 5-((5-((benzylsulfonyl) (5-methyl-6-phenyl-benzo[d]thiazol-2-yl)methyl)-1,3,4-oxadiazol-2-yl)methyl)thiazolidine-2,4-dione] | < 10
15 | NS(=O)(=O)NCc1nnc(C(c2nc3ccc(-c4ccccc4)cc3s2)S(=O)(=O)Cc2ccccc2)o1 (centres unmarked) [Example 47, N-((5-((benzylsulfonyl) (6-phenyl-1,3-benzothiazol-2-yl)methyl)-1,3,4-oxadiazol-2-yl)methyl)sulfamide] | < 10
16 | CC1(Cc2nnc(C(c3nc4ccc(-c5ccc(F)nc5)cc4s3)S(=O)(=O)Cc3ccccc3)o2)NC(=O)NC1=O (single isomer, unassigned; isomer a) [Example 6, 5-((5-((benzylsulfonyl)(6-(6-fluoropyridin-3-yl)benzo[d]thiazol-2-yl)methyl)-1,3,4-oxadiazol-2-yl)methyl)-5-methylimidazolidine-2,4-dione (Isomer A)] | 11
17 | CC(C)CS(=O)(=O)C(c1nnc(CNS(N)(=O)=O)o1)c1nc2ccc(-c3ccccc3)cc2s1 (centres unmarked) [Example 68, N-[(5-{6-phenyl-1,3-benzothiazol-2-yl[(2-methylpropyl)sulfonyl]methyl}-1,3,4-oxadiazol-2-yl)methyl]sulfuric diamide] | < 10
18 | CS(=O)(=O)C(c1nnc(CNS(N)(=O)=O)o1)c1nc2ccc(-c3ccc(F)nc3)cc2s1 (centres unmarked) [Example 79, N-((5-((6-(6-fluoro-3-pyridinyl)-1,3-benzothiazol-2-yl)(methylsulfonyl)methyl)-1,3,4-oxadiazol-2-yl)methyl)sulfamide] | < 10
19 | Cn1cc(-c2ccc3nc(C(c4nnc(CC5SC(=O)NC5=O)o4)S(C)(=O)=O)sc3c2)cn1 (centres unmarked) [Example 24, 5-((5-((6-(1-methyl-1H-pyrazol-4-yl)benzo[d]thiazol-2-yl)(methylsulfonyl)methyl)-1,3,4-oxadiazol-2-yl)methyl) thiazolidine-2,4-dione] | < 10
20 | Cc1cc2nc(C(c3nnc(CC4SC(=O)NC4=O)o3)S(C)(=O)=O)sc2cc1-c1ccccc1 (centres unmarked) [Example 96, 5-((5-((5-methyl-6-phenylbenzo[d]thiazol-2-yl)(methyl-sulfonyl)methyl)-1,3,4-oxadiazol-2-yl)methyl)thiazolidine-2,4-dione] | < 10
21 | CS(=O)(=O)C(c1nnc(CC2NC(=O)NC2=O)o1)c1nc2ccc(-c3ccc(C(=O)N4CCOCC4)cc3)cc2s1 (centres unmarked) [Example 16, 5-((5-((methylsulfonyl)(6-(4-(morpholine-4-carbonyl)phenyl)benzo[d]thiazol-2-yl)methyl)-1,3,4-oxadiazol-2-yl)methyl)imidazolidine-2,4-dione] | 46
22 | CC1(Cc2nnc(C(c3nc4ccc(-c5ccc(C(=O)N6CCOCC6)cc5)cc4s3)S(=O)(=O)Cc3ccccc3)o2)NC(=O)NC1=O (centres unmarked) [Example 8, 5-((5-((benzylsulfonyl)(6-(4-(morpholine-4-carbonyl)phenyl)benzo[d]thiazol-2-yl)methyl)-1,3,4-oxadiazol-2-yl)methyl)-5-methylimidazolidine-2,4-dione] | 62
23 | CCS(=O)(=O)C(c1nnc(CNS(N)(=O)=O)o1)c1nc2ccc(-c3ccccc3)cc2s1 (centres unmarked) [Example 65, N-({5-[(ethylsulfonyl) (6-phenyl-1,3-benzothiazol-2-yl)methyl]-1,3,4-oxadiazol-2-yl}methyl)sulfuric diamide] | < 10
24 | CC1(Cc2nnc(C(c3nc4ccc(-c5ccc(C(=O)N6CCOCC6)cc5)cc4s3)S(C)(=O)=O)o2)NC(=O)NC1=O (single isomer, unassigned; isomer b) [Example 15, 5-methyl-5-((5-((methylsulfonyl)(6-(4-(morpholine-4-carbonyl)phenyl)benzo[d]thiazol-2-yl)methyl)-1,3,4-oxadiazol-2-yl)methyl)imidazolidine-2,4-dione (Isomer B)] | 65
25 | CC(c1nnc(CNS(N)(=O)=O)o1)(c1nc2ccc(-c3ccccc3)cc2s1)S(C)(=O)=O (single isomer, unassigned) [Reference 1, Isomer B, N-((5-(1-(Methylsulfonyl)-1-(6-phenyl-1,3-benzothiazol-2-yl)ethyl)-1,3,4-oxadiazol-2-yl)methyl)sulfamide, reference compound] | 5200
26 | CS(=O)(=O)NCc1nnc(C(c2nc3ccc(-c4ccccc4)cc3s2)S(C)(=O)=O)o1 (centres unmarked) [Example 86, N-((5-((Methylsulfonyl)(6-phenylbenzo[d]thiazol-2-yl)methyl)-1,3,4-oxadiazol-2-yl)methyl)methanesulfonamide] | 47
